These results are taken from ChEMBL document CHEMBL4229544, “Design, synthesis and antibacterial properties of pyrimido[4,5-b]indol-8-amine inhibitors of DNA gyrase” (Bioorg Med Chem Lett, 2018).

What all share (format): functional
The test system of test [1] is Mycobacterium tuberculosis. The test can be described thus: Antitubercular activity against rifampicin-resistant Mycobacterium tuberculosis H37Rv harboring RpoB S522L mutant.
The subject of test [2] is Mycobacterium tuberculosis. The test can be described thus: Antitubercular activity against fluoroquinolone-resistant Mycobacterium tuberculosis H37Rv harboring gyrA D94N mutant.
Test [3] has as its system Mycobacterium tuberculosis. Description: Antitubercular activity against isoniazid-resistant Mycobacterium tuberculosis H37Rv harboring katG Y155 mutant.

In brackets after ≈: the same amount, converted by molar mass.

In the case of `CNc1cc(F)cc2c1[nH]c1nc(CNC(=O)c3cocn3)nc(N3CCC(N)C3)c12` (stereo not drawn), the results for the MIC in test [1], in test [2] and in test [3] were 0.012 µg/mL (≈ 0.0283 µM), 0.014 µg/mL (≈ 0.033 µM) and 0.013 µg/mL (≈ 0.0306 µM), respectively.
Take `CNc1cc(F)cc2c1[nH]c1nc(CNC(=O)c3cnco3)nc(N3CCC(N)C3)c12` (stereo not drawn): the minimal inhibitory concentration (MIC) in test [1], in test [2] and in test [3] was 0.09 µg/mL (≈ 0.212 µM) in each case.
With `NNC(=O)c1ccncc1` [ISONIAZID], the values for the MIC in test [1], in test [2] and in test [3] were 0.014 µg/mL (≈ 0.102 µM), 0.05 µg/mL (≈ 0.365 µM) and above 27 µg/mL, respectively.
`COc1c(N2C[C@@H]3CCCN[C@@H]3C2)c(F)cc2c(=O)c(C(=O)O)cn(C3CC3)c12` [MOXIFLOXACIN]: the minimal inhibitory concentration (MIC) was determined as 0.04 µg/mL (≈ 0.0996 µM) in test [1], 3.9 µg/mL (≈ 9.72 µM) in test [2] and 0.04 µg/mL (≈ 0.0996 µM) in test [3].
In the case of `CO[C@@H]1[C@@H](OC(N)=O)[C@@H](O)[C@H](Oc2ccc3c(O)c(NC(=O)c4ccc(O)c(CC=C(C)C)c4)c(=O)oc3c2C)OC1(C)C` [NOVOBIOCIN], the results for the MIC in test [1], in test [2] and in test [3] were 13.5 µg/mL (≈ 22 µM), 7.35 µg/mL (≈ 12 µM) and 6.7 µg/mL (≈ 10.9 µM), respectively.
For the compound `CO[C@H]1/C=C/O[C@@]2(C)Oc3c(C)c(O)c4c(O)c(c(/C=N/N5CCN(C)CC5)c(O)c4c3C2=O)NC(=O)/C(C)=C\C=C\[C@H](C)[C@H](O)[C@@H](C)[C@@H](O)[C@@H](C)[C@H](OC(C)=O)[C@@H]1C` [RIFAMPIN], the minimum inhibitory concentration (MIC) was 3 µg/mL (≈ 3.65 µM) in test [1], 0.019 µg/mL (≈ 0.0231 µM) in test [2] and 0.013 µg/mL (≈ 0.0158 µM) in test [3].

In general, MIC refers to the lowest concentration that inhibits growth of the organism.
